System: mice with induced myocardial infarction
Test: Post-MI chronic heart failure in mice, echocardiography
Format: in vivo
Description: The purpose of this experiment is to study the effect of vibegron on structural remodeling (e.g., hypertrophy and/or fibrosis) and functional remodeling (e.g, ventricular function) in mice with chronic HF after a myocardial infarction (MI). The specific aims of these studies will be to determine the dose response treatment effects on cardiac remodeling by measuring parameters of cardiac structure and function using non-invasive, invasive, morphological, and histological assessments of mice after MI.
Myocardial infarction in the mouse is a commonly used experimental model for chronic ischemic heart failure. Due to complete ligation of the left anterior descending coronary artery, there is a large left ventricular infarct that produces adverse LV remodeling and significant dysfunction within 2 weeks post-MI. There also is significant fibrosis in this model and it is robust and reproducible with low mortality due to the surgical procedure. This model has been used for over 2 decades (see, e.g., Gao, E. et al., Circulation Research, 2010; 107: 1445-1453) and has been used to test potential novel HF therapeutics (Schumacher, S. et al. Science Translational Medicine, 2015; 7: 277).
Myocardial infarction was induced in 10-12 week C57B/6 wild-type mice and after 2 weeks echo cardiograms were used to assess the MI severity in each mouse. Mice were randomized for treatment based on similarity and severity of the induced infarct. The mice were started with either vibegron or vehicle (1-3 doses) administered by continuous infusion using 2 week minipumps (Azlet Corp.) that were filled with the appropriate dose and implanted subcutaneously on the back of each animal in the region of the scapula. The minipumps were replaced with new minipumps in the same location at the 2 week time point and dosed for 4 weeks in total. Cardiac function was assessed by echocardiography (Echo) at 0, 2, 4, and 6 weeks. Some mice were subjected to terminal catheterization to measure hemodynamic pressures and adrenergic responsiveness.
Sham surgery groups treated with vehicle and highest dose of vibegron were included as controls. One group of post-MI mice treated with vehicle was also included in the study as a control. Two groupings of the 6 conditions were tested to allow for multiple replicates. There were 7 to 8 mice per condition in each group. The 2 groups studied were staggered by 3-4 weeks.
At this point, 6 experimental conditions (A-F below)×2 groups (staggered for reproducibility) were tested. Vibegron was provided in a form dissolved and delivered via an osmotic minipump placed under the skin of the mouse. The vehicle was used for negative control animals. Three (3) doses of vibegron (low, medium and high) were tested.
• A. Sham—vehicle • B. Sham—vibegron (high dose) • C. MI—vehicle • D. MI—vibegron—low dose • E. MI—vibegron—medium dose • F. MI—vibegron—high dose Group 2 (7 or 8 Mice Per Group) Repeated 3-4 Weeks after Group 1 • A. Sham—vehicle • B. Sham—vibegron (high dose) • C. MI—vehicle • D. MI—vibegron—low dose • E. MI—vibegron—medium dose • F. MI—vibegron—high dose
• 1. Day 0 (after 1-2 weeks acclimation)—pre-surgery Echo • 2. Perform LAD Ligation (MI) or Sham procedure • 3. Day 14—Echo and randomly assign groups • 4. Day 14—begin administration of vehicle and drug for 4 weeks • 5. Day 28—Echo (operator blinded to groups)—change pumps for another 2 week dosing • 6. Day 42—Echo (operator blinded to groups) • 7. Day 42—Some were used for hemodynamics and ISO dose response and all animals sacrificed. Some were used for histology and some for RNA/Protein analysis. Blood was also collected at the time of sacrifice to determine serum concentrations.
Surgical Methods: As described in Gao, E. et al., Circulation Research, 2010; 107: 1445-1453 and Schumacher, S. et al. Science Translational Medicine, 2015; 7: 277, mice were anesthetized and complete ligation of the LAD was performed through a partial thoracotomy.

[1] = MI mice, high dose (10 mg/kg), Baseline (pre-surgery)
[2] = MI mice, high dose (10 mg/kg), Week 2 (before start of dosing)
[3] = MI mice, high dose (10 mg/kg), Week 4 (2 weeks after dosing)
[4] = MI mice, high dose (10 mg/kg), Week 6 (4 weeks of treatment)
[5] = MI mice, low dose (1 mg/kg), Baseline (pre-surgery)
[6] = MI mice, low dose (1 mg/kg), Week 2 (before start of dosing)
[7] = MI mice, low dose (1 mg/kg), Week 4 (2 weeks after dosing)
[8] = MI mice, low dose (1 mg/kg), Week 6 (4 weeks of treatment)
[9] = MI mice, medium dose (3 mg/kg), Baseline (pre-surgery)
[10] = MI mice, medium dose (3 mg/kg), Week 2 (before start of dosing)
[11] = MI mice, medium dose (3 mg/kg), Week 4 (2 weeks after dosing)
[12] = MI mice, medium dose (3 mg/kg), Week 6 (4 weeks of treatment)
[13] = sham mice, high dose (10 mg/kg), Baseline (pre-surgery)
[14] = sham mice, high dose (10 mg/kg), Week 2 (before start of dosing)
[15] = sham mice, high dose (10 mg/kg), Week 4 (2 weeks after dosing)
[16] = sham mice, high dose (10 mg/kg), Week 6 (4 weeks of treatment)

SMILES: O=C(Nc1ccc(C[C@@H]2CC[C@H]([C@H](O)c3ccccc3)N2)cc1)[C@@H]1CCc2nccc(=O)n21 [Vibegron, (6S)—N-[4-[[(2S,5R)-5-[(R)-hydroxy(phenyl)methyl]pyrrolidin-2-yl]methyl]phenyl]-4-oxo-7,8-dihydro-6H-pyrrolo[1,2-a]pyrimidine-6-carboxamide]
- Average % Ejection Fraction [1]: 62.06%
- Average % Fractional Shortening [1]: 32.99%
- Cardiac Output [1]: 20.56 mL/min
- Stroke Volume [1]: 43.30 µL
- Average % Ejection Fraction [2]: 38.39%
- Average % Fractional Shortening [2]: 18.91%
- Cardiac Output [2]: 18.93 mL/min
- Stroke Volume [2]: 40.79 µL
- Average % Ejection Fraction [3]: 42.59%
- Average % Fractional Shortening [3]: 21.61%
- Cardiac Output [3]: 23.29 mL/min
- Cardiac Output % Improvement Relative to Vehicle [3]: 37.40%
- Stroke Volume [3]: 46.83 µL
- Stroke Volume % Improvement Relative to Vehicle [3]: 40.84%
- Average % Ejection Fraction [4]: 42.68%
- Average % Fractional Shortening [4]: 21.76%
- Cardiac Output [4]: 25.09 mL/min
- Cardiac Output % Improvement Relative to Vehicle [4]: 61.35%
- Stroke Volume [4]: 47.22 µL
- Stroke Volume % Improvement Relative to Vehicle [4]: 57.87%
- Average % Ejection Fraction [5]: 59.50%
- Average % Fractional Shortening [5]: 31.22%
- Cardiac Output [5]: 20.00 mL/min
- Stroke Volume [5]: 42.74 µL
- Average % Ejection Fraction [6]: 37.52%
- Average % Fractional Shortening [6]: 18.44%
- Cardiac Output [6]: 18.06 mL/min
- Stroke Volume [6]: 39.30 µL
- Average % Ejection Fraction [7]: 29.77%
- Average % Fractional Shortening [7]: 14.29%
- Cardiac Output [7]: 15.45 mL/min
- Stroke Volume [7]: 32.76 µL
- Average % Ejection Fraction [8]: 31.64%
- Average % Fractional Shortening [8]: 15.21%
- Cardiac Output [8]: 19.19 mL/min
- Cardiac Output % Improvement Relative to Vehicle [8]: 23.40%
- Stroke Volume [8]: 37.54 µL
- Stroke Volume % Improvement Relative to Vehicle [8]: 25.51%
- Average % Ejection Fraction [9]: 58.11%
- Average % Fractional Shortening [9]: 30.07%
- Cardiac Output [9]: 21.05 mL/min
- Stroke Volume [9]: 44.72 µL
- Average % Ejection Fraction [10]: 37.18%
- Average % Fractional Shortening [10]: 18.14%
- Cardiac Output [10]: 18.94 mL/min
- Stroke Volume [10]: 40.37 µL
- Average % Ejection Fraction [11]: 35.95%
- Average % Fractional Shortening [11]: 17.57%
- Cardiac Output [11]: 19.51 mL/min
- Cardiac Output % Improvement Relative to Vehicle [11]: 15.10%
- Stroke Volume [11]: 39.00 µL
- Stroke Volume % Improvement Relative to Vehicle [11]: 17.29%
- Average % Ejection Fraction [12]: 35.55%
- Average % Fractional Shortening [12]: 17.36%
- Cardiac Output [12]: 20.90 mL/min
- Cardiac Output % Improvement Relative to Vehicle [12]: 34.41%
- Stroke Volume [12]: 41.69 µL
- Stroke Volume % Improvement Relative to Vehicle [12]: 39.38%
- Onset of action (after initiation of treatment, as shown in the examples): ≤ 2 weeks
- Adverse effects in healthy hearts (echocardiographic function versus baseline) (sham mice, high dose): no adverse effects
- Average % Ejection Fraction [13]: 59.04%
- Average % Fractional Shortening [13]: 30.87%
- Cardiac Output [13]: 22.09 mL/min
- Stroke Volume [13]: 42.25 µL
- Average % Ejection Fraction [14]: 62.36%
- Average % Fractional Shortening [14]: 33.26%
- Cardiac Output [14]: 23.72 mL/min
- Stroke Volume [14]: 45.57 µL
- Average % Ejection Fraction [15]: 61.08%
- Average % Fractional Shortening [15]: 32.32%
- Cardiac Output [15]: 22.53 mL/min
- Stroke Volume [15]: 44.44 µL
- Average % Ejection Fraction [16]: 61.18%
- Average % Fractional Shortening [16]: 32.45%
- Cardiac Output [16]: 23.63 mL/min
- Stroke Volume [16]: 45.97 µL
